# Source: patent US12226401B2, “Molecular genetic approach to treatment and diagnosis of alcohol and drug dependence” (priority 2010, dated 2025)
# How the values were obtained:
# Assay type in all cases: in vivo, human
# [1] = test system: alcoholics; assay: Predicted treatment outcome with ondansetron by 5'-HTTLPR / rs1042173 genotype matrix; parameters: key: XA being the very best; all the cells marked with an X will be efficacious; Y may respond somewhat; Z will not respond or worsen
# [2] = test system: alcohol dependent individuals; assay: Same ondansetron alcohol dependence trial, epistatic genotype analysis: drinks/day (DD)
# Source text: (§1) Using the same data as was used in Example 11, further epistatic analysis among SNPs from serotonin (SERT), 5HT-3A, and 5HT-3B reveal that significant epistatic effect exists among the three genes in affecting response to ondesetron treatment as measured by drinks/drinking day (DDD), drinks/day (DD), percentage heavy drinking days (PHDD), and percentage of days abstinent (PDA).
# (§2) Using the same data as was used in Example 11, further epistatic analysis among SNPs from serotonin (SERT), 5HT-3A, and 5HT-3B reveal that significant epistatic effect exists among the three genes in affecting response to ondesetron treatment as measured by DDD, DD, and PDA.
# [3] = test system: alcohol dependent individuals; assay: Same ondansetron alcohol dependence trial, epistatic genotype analysis: percentage of days abstinent (PDA)
# Source text: as §1, §2
# [4] = test system: methamphetamine dependent subjects; assay: Methamphetamine/Ondansetron study: proportion of subjects with methamphetamine-free (clean) week, GEE analysis by 5'-HTTLPR genotype
# Source text: Methods: Data were modeled using generalized estimating equations (GEE). […] Independent variables were genotype, group, weeks since randomization and the interaction between treatment group and weeks since randomization. […] The model's group and genotype terms allowed for possible differences at baseline due to ineffective randomization and genotype, respectively. Group consisted of two levels: placebo vs. all active arms combined, where all active arms were combined at the request of the study sponsor and investigators. Subjects were of three different genotypes—SS, LL and LS. At the request of the investigator, two, separate GEE analyses were run, one for each pairing of a homozygote with the heterozygote (i.e., SS-LS and LL-LS). Due to the small quantity of subjects for which genotyping was conducted (n=34), hypothesis testing used Type III generalized score statistics. Analysis was restricted to data obtained post-randomization. Methods: Data were modeled using generalized estimating equations (GEE). […] Independent variables were genotype, group, weeks since randomization and the interaction between treatment group and weeks since randomization. The hypothesis of primary interest asked if treatment with ondansetron influences rate of change in methamphetamine usage over time. […] The model's group and genotype terms allowed for possible differences at baseline due to ineffective randomization and genotype, respectively. Group consisted of two levels: placebo vs. all active arms combined, where all active arms were combined at the request of the study sponsor and investigators. Subjects were of three different genotypes—SS, LL and LS. At the request of the investigator, two, separate GEE analyses were run, one for each pairing of a homozygote with the heterozygote (i.e., SS-LS and LL-LS). Due to the small quantity of subjects for which genotyping was conducted (n=34), hypothesis testing used Type III generalized score statistics. Analysis was restricted to data obtained post-randomization.
# [5] = test system: alcohol dependent patients; assay: Phase II study of 283 randomized alcohol dependent subjects: ondansetron response by 5'-HTTLPR and 3'-UTR genotype (PHDD, DDD, PDA, patients with no heavy drinking); conditions: LL/TT, LL/TG, LL/GG, LS/TG, and SS/TG genotypes
# Source text: The TT and TG genotype groups can be summarized as T carriers.
# [6] = Among Comb (LL + TT or AC or AG)
# [7] = Among OND, Comb = LL + TT or AC or AG
# [8] = Others (not LL + TT or AC or AG)
# [9] = all OND patients, model Comb (LL + TT or AC or AG) vs Others
compound,measurement,setting,value
"Cc1nccn1CC1CCc2c(c3ccccc3n2C)C1=O (stereo not shown) [ondansetron, 9-methyl-3-[(2-methyl-1H-imidazol-1-yl)methyl]-1,2,3,9-tetrahydrocarbazol-4-one]",Predicted treatment outcome with ondansetron,[1]; genotype LL/GG,X
same,Predicted treatment outcome with ondansetron,[1]; genotype LL/TG,X
same,Predicted treatment outcome with ondansetron,[1]; genotype LL/TT,XA
same,Predicted treatment outcome with ondansetron,[1]; genotype LS/GG,Y
same,Predicted treatment outcome with ondansetron,[1]; genotype LS/TG,Y
same,Predicted treatment outcome with ondansetron,[1]; genotype LS/TT,X
same,Predicted treatment outcome with ondansetron,[1]; genotype SS/GG,Z
same,Predicted treatment outcome with ondansetron,[1]; genotype SS/TG,Z
same,Predicted treatment outcome with ondansetron,[1]; genotype SS/TT,X
same,"Least Squares Mean Difference, Drinks per Days, OND vs. Placebo",[2]; [6],−1.65
same,"Least Squares Mean Difference, Drinks per Days, Comb vs. Others",[2]; [7],−1.65
same,"Least Squares Mean, Drinks per Days",[2]; Comb (LL + TT or AC or AG),2.90
same,"Least Squares Mean, Drinks per Days",[2]; [8],4.55
same,"Least Squares Mean, Drinks per Days",[2]; [9],3.72
same,"Least Squares Mean Difference, PDA, OND vs. Placebo",[3]; [6],13.36
same,"Least Squares Mean Difference, PDA, Comb vs. Others",[3]; [7],13.11
same,"Least Squares Mean, Percentage Days of Abstinent (PDA)",[3]; Comb (LL + TT or AC or AG),48.68
same,"Least Squares Mean, Percentage Days of Abstinent (PDA)",[3]; [8],35.58
same,"Least Squares Mean, Percentage Days of Abstinent (PDA)",[3]; [9],42.13
same,"Proportion with Clean Week, Mean","[4]; Active Arm Yes (all active arms combined), all genotypes, study week 1",0.55
same,"Proportion with Clean Week, Mean","[4]; Active Arm Yes, all genotypes, study week 2",0.50
same,"Proportion with Clean Week, Mean","[4]; Active Arm Yes, all genotypes, study week 3",0.63
same,"Proportion with Clean Week, Mean","[4]; Active Arm Yes, all genotypes, study week 4",0.53
same,"Proportion with Clean Week, Mean","[4]; Active Arm Yes, all genotypes, study week 5",0.43
same,"Proportion with Clean Week, Mean","[4]; Active Arm Yes, all genotypes, study week 6",0.33
same,"Proportion with Clean Week, Mean","[4]; Active Arm Yes, all genotypes, study week 7",0.46
same,"Proportion with Clean Week, Mean","[4]; Active Arm Yes, all genotypes, study week 8",0.50
same,"Proportion with Clean Week, Mean","[4]; LLLS No, Active Yes, study week 1",0.50
same,"Proportion with Clean Week, Mean","[4]; LLLS No, Active Yes, study week 2",0.33
same,"Proportion with Clean Week, Mean","[4]; LLLS No, Active Yes, study week 3",0.71
same,"Proportion with Clean Week, Mean","[4]; LLLS No, Active Yes, study week 4",0.50
same,"Proportion with Clean Week, Mean","[4]; LLLS No, Active Yes, study week 5",0.25
same,"Proportion with Clean Week, Mean","[4]; LLLS No, Active Yes, study week 6",0.50
same,"Proportion with Clean Week, Mean","[4]; LLLS No, Active Yes, study week 7",0.25
same,"Proportion with Clean Week, Mean","[4]; LLLS No, Active Yes, study week 8",0.00
same,"Proportion with Clean Week, Mean","[4]; LLLS Yes, Active Yes, study week 1",0.58
same,"Proportion with Clean Week, Mean","[4]; LLLS Yes, Active Yes, study week 2",0.60
same,"Proportion with Clean Week, Mean","[4]; LLLS Yes, Active Yes, study week 3",0.58
same,"Proportion with Clean Week, Mean","[4]; LLLS Yes, Active Yes, study week 4",0.55
same,"Proportion with Clean Week, Mean","[4]; LLLS Yes, Active Yes, study week 5",0.50
same,"Proportion with Clean Week, Mean","[4]; LLLS Yes, Active Yes, study week 6",0.25
same,"Proportion with Clean Week, Mean","[4]; LLLS Yes, Active Yes, study week 7",0.56
same,"Proportion with Clean Week, Mean","[4]; LLLS Yes, Active Yes, study week 8",0.57
same,"Proportion with Clean Week, Mean","[4]; SSLS No, Active Yes, study week 1 since randomization",1.00
same,"Proportion with Clean Week, Mean","[4]; SSLS No, Active Yes, study week 2",0.50
same,"Proportion with Clean Week, Mean","[4]; SSLS No, Active Yes, study week 3",1.00
same,"Proportion with Clean Week, Mean","[4]; SSLS No, Active Yes, study week 4",0.50
same,"Proportion with Clean Week, Mean","[4]; SSLS No, Active Yes, study week 5",0.50
same,"Proportion with Clean Week, Mean","[4]; SSLS No, Active Yes, study week 6",0.50
same,"Proportion with Clean Week, Mean","[4]; SSLS No, Active Yes, study week 7",0.50
same,"Proportion with Clean Week, Mean","[4]; SSLS No, Active Yes, study week 8",0.50
same,"Proportion with Clean Week, Mean","[4]; SSLS Yes, Active Yes, study week 1",0.50
same,"Proportion with Clean Week, Mean","[4]; SSLS Yes, Active Yes, study week 2",0.50
same,"Proportion with Clean Week, Mean","[4]; SSLS Yes, Active Yes, study week 3",0.59
same,"Proportion with Clean Week, Mean","[4]; SSLS Yes, Active Yes, study week 4",0.53
same,"Proportion with Clean Week, Mean","[4]; SSLS Yes, Active Yes, study week 5",0.42
same,"Proportion with Clean Week, Mean","[4]; SSLS Yes, Active Yes, study week 6",0.30
same,"Proportion with Clean Week, Mean","[4]; SSLS Yes, Active Yes, study week 7",0.45
same,"Proportion with Clean Week, Mean","[4]; SSLS Yes, Active Yes, study week 8",0.50
same,Proportion of subjects with a methamphetamine-free week over time,"[4]; active group (all active arms combined), 34 subjects, placebo arm declined",remained roughly steady
same,Response to ondansetron treatment by genotype,[5],respond to ondansetron treatment
